Results on 12 compounds are retold here after patent US20240148723A1, “MYCOBACTERIUM TUBERCULOSIS COMPOSITIONS AND METHODS” (priority 2021, published 2024).

SMILES strings stand for the structures. ≈ marks a conversion by molar mass, not a printed value. Where “and” joins values, the source holds several entries; their conditions need not be identical. Equal values may be shown once. Entries after “also recorded” stand apart in the source; their conditions may differ. Read-outs that look alike come from different tables or passages of the source.

In test [1] the test system is M. tuberculosis H37Ra PZA^R #98. The test can be described thus: microbe, parasite or virus in culture. The following applies: Mycobacterium tuberculosis, 504 h, pH 6.8, read-out: MIC of PZA. It is filed as cell-based.
The test system of test [2] is M. tuberculosis H37Ra. Kind of test: microbe, parasite or virus in culture. The following applies: for MIC: Mycobacterium tuberculosis, H37RA. It is filed as cell-based, Mycobacterium tuberculosis.
The subject of test [3] is H37Ra. The test can be described thus: microbe, parasite or virus in culture. It is filed as cell-based, Mycobacterium tuberculosis.
In test [4] the test system is M. tuberculosis H37Ra. It is filed as cell-based, Mycobacterium tuberculosis.
For test [5], the system named is M. tuberculosis H37Ra PZA^R #6. The test can be described thus: microbe, parasite or virus in culture. The settings on record: Mycobacterium tuberculosis, 504 h, pH 6.8, read-out: MIC of PZA. It is filed as cell-based.
Test [6] concerns M. tuberculosis H37Ra. Kind of test: microbe, parasite or virus in culture. It is filed as cell-based, Mycobacterium tuberculosis. The following applies: for MIC: Mycobacterium tuberculosis, H37RA. The source holds these as a separate data set.
Test [7] concerns M. tuberculosis H37Ra PZA^R #78. Kind of test: microbe, parasite or virus in culture. It is filed as cell-based. The settings on record: Mycobacterium tuberculosis, 504 h, pH 6.8, read-out: MIC of PZA.
Test [8] relates to M. tuberculosis H37Ra PZA^R #186. The test can be described thus: microbe, parasite or virus in culture. It is filed as cell-based. The following applies: Mycobacterium tuberculosis, 504 h, pH 6.8, read-out: MIC of PZA.
For test [9], the system named is M. tuberculosis H37Ra (PZA^S). It is filed as cell-based. The settings on record: test tubes, PZA-S1 medium, pH 6.8.
Test [10] deals with M. tuberculosis H37Ra PZA^R #106. Kind of test: microbe, parasite or virus in culture. It is filed as cell-based. The following applies: Mycobacterium tuberculosis, 504 h, pH 6.8, read-out: MIC of PZA.
In test [11] the test system is M. tuberculosis. It is filed as cell-based, Mycobacterium tuberculosis. The following applies: pH 6.8.

On to `NC(=O)c1cnccn1` [PZA, Pyrazinamide], for which the MIC in [1] is over 800 µg/mL; in test [2] (pH 5.5, read-out: MIC for PZA) it was under 12.5 µg/mL; in test [2] (pH 6, read-out: MIC for PZA), 100 µg/mL (≈ 812 µM); in test [2] (pH 7, read-out: MIC for PZA), 25 µg/mL (≈ 203 µM); in test [2] (pH 8, read-out: MIC for PZA) it was 200 µg/mL (≈ 1620 µM); in test [2] (read-out: MIC for PZA) it was 200 µg/mL (≈ 1620 µM). Also, the MIC was 50 µg/mL in test [3] (Mycobacterium tuberculosis, H37RA, read-out: MIC of PZA); over 800 µg/mL in [5]; 200 µg/mL (≈ 1620 µM) in test [6] (336 h, pH 6.8); 100 to 200 µg/mL (≈ 812 to 1620 µM) in test [6] (pH 6.8, read-out: MICs of PZA); 50 µg/mL in test [6] (read-out: MIC of PZA); over 800 µg/mL in test [7]. Moreover, the MIC in test [8] and in test [10] was over 800 µg/mL each time. In test [2], the “MIC for PZA lower in acidic conditions (pH 6.5 and pH 6.0) than in neutral pH 7.0 conditions” value is 8 fold. Besides, the growth entry in test [2] (pH 5) is “−”; in [2] (pH 5.5) it was “− and +”; in test [2] (pH 6), “+ and −”; in [2] (pH 6.5), “+ and −”; in [2] (pH 7), “+ and −”; in [2] (pH 7.5) it was “− and +”. Also, the growth result in test [2] (pH 8) was “− and +”; in test [2] (pH 8.5), “− and +”. Also, the “Percentage of CFU to Z 0” value in test [3] is 1.20% and 0.14% and 0.02% and 0.08%. Moreover, the entries for the “lawn formation of M. tuberculosis” value in [4] (pH 6.6) and in test [4] (pH 6.8) were “no inhibition” and “inhibited lawn formation”, respectively. Besides, in test [4] (pH 6.8), the “growth inhibition, paper disk” value is “small inhibition zone; also recorded: strong growth inhibition”. In [6] (pH 6.8), the “increase in MIC between 1/100 and 1/10 inoculum size dilutions” value is 2-8 fold. For the same compound, the “concentration of PZA at which growth was inhibited” value in test [9] is 200 µg/mL.
Compound `COc1nc2ccc(Br)cc2cc1[C@@H](c1ccccc1)[C@@](O)(CCN(C)C)c1cccc2ccccc12` [bedaquiline] yielded an MIC in test [6] (pH 6.8) of 0.064 µg/mL (≈ 0.115 µM).
Regarding `C=CC(=O)Nc1cc(Nc2nccc(-c3cn(C)c4ccccc34)n2)c(OC)cc1N(C)CCN(C)C` [compound 779217], in test [11], the “MIC in the media 7H9” value was at least 12.49 µg/mL, the “MIC in the media L-Ala” value came out at 3.12 µg/mL (≈ 6.24 µM), the “MIC in the media SBA” value worked out at 3.12 µg/mL (≈ 6.24 µM) and the “MIC in the media SLac” value stood at 1.60 µg/mL (≈ 3.2 µM).
With `CN1CCc2cc3c(c4c2C1Cc1ccccc1-4)OCO3.Cl` (stereo not shown) [compound 785164], in test [11], the “MIC in the media 7H9” value was at least 13.97 µg/mL, the “MIC in the media L-Ala” value came to 6.98 µg/mL, the “MIC in the media SBA” value was determined as 3.49 µg/mL and the “MIC in the media SLac” value amounted to 1.75 µg/mL.
Take `COc1cc2c(cc1O)C[C@H]1c3c(cc4c(c3-2)OCO4)CCN1C` [compound 785178]: in [11], the “MIC in the media 7H9” value was at least 16.27 µg/mL, the “MIC in the media L-Ala” value was found to be 8.13 µg/mL (≈ 25 µM), the “MIC in the media SBA” value came to 4.07 µg/mL (≈ 12.5 µM) and the “MIC in the media SLac” value was 4.07 µg/mL (≈ 12.5 µM).
As to `CC[C@@H](CO)NCCN[C@@H](CC)CO` [ethambutol], the MIC in test [6] (336 h, pH 6.8) is 2 µg/mL (≈ 9.79 µM); in [6] (pH 6.8) it was 1.6 µg/mL (≈ 7.83 µM).
For the compound `CCc1cc(C(N)=S)ccn1` [ethionamide], in test [6] (pH 6.8), the MIC amounted to 0.5 µg/mL (≈ 3.01 µM).
`NNC(=O)c1ccncc1` [isoniazid]: the MIC in test [6] (336 h, pH 6.8) was found to be 0.02 µg/mL (≈ 0.146 µM); in test [6] (pH 6.8), 0.06 µg/mL (≈ 0.438 µM).
In [6] (pH 6.8), `CC(=O)NC[C@H]1CN(c2ccc(N3CCOCC3)c(F)c2)C(=O)O1` [linezolid] registered an MIC of 2 µg/mL (≈ 5.93 µM).
In the case of `COc1c(N2C[C@@H]3CCCN[C@@H]3C2)c(F)cc2c(=O)c(C(=O)O)cn(C3CC3)c12` [moxifloxacin], the MIC in test [6] (pH 6.8) was found to be 0.25 µg/mL (≈ 0.623 µM).
`CO[C@H]1/C=C/O[C@@]2(C)Oc3c(C)c(O)c4c(O)c(c(/C=N/N5CCN(C)CC5)c(O)c4c3C2=O)NC(=O)/C(C)=C\C=C\[C@H](C)[C@H](O)[C@@H](C)[C@@H](O)[C@@H](C)[C@H](OC(C)=O)[C@@H]1C` [rifampin]: the MIC in [6] (336 h, pH 6.8) worked out at 0.13 µg/mL (≈ 0.158 µM); in [6] (pH 6.8) it was 0.06 µg/mL (≈ 0.0729 µM).
Turning to `[H]/N=C(/N)N[C@H]1[C@H](O)[C@@H](O)[C@H](O[C@@H]2O[C@@H](C)[C@](O)(C=O)[C@H]2O[C@@H]2O[C@@H](CO)[C@H](O)[C@@H](O)[C@@H]2NC)[C@@H](N/C(N)=N\[H])[C@@H]1O` [streptomycin], the MIC in [6] (pH 6.8) was 0.25 µg/mL (≈ 0.43 µM).
